Test results from US6914045B2, “Glycopeptide antibiotics” (Wyeth Holdings Corporation, priority 2001, dated 2005).

Experiments:
Assay in all cases: in vitro antibacterial evaluation, MIC by broth dilution
Format in all cases: cell-based
Escherichia coli = test system: Escherichia coli
How it was run: (§1)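 Test organisms, which included recent clinical isolates resistant to methicillin, penicillin and/or vancomycin, were inoculated at 5×10^5 CFU/mL into Muller-Hinton II […] containing antibiotic at 64-0.06 μg/mL. Minimum inhibitory concentrations were then read as the lowest level inhibiting growth.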

Enterococcus sp. = test system: Enterococcus sp.
How it was run: as §1

Staphylococcus sp. = details: broth dilution, 18 hours at 35° C.
How it was run: as §1

Streptococcus sp. = test system: Streptococcus sp.
How it was run: as §1

[1] = Enterococcus avium (GC 4558); broth dilution, 18 hours at 35° C.
[2] = Enterococcus faecalis (ATCC 29212); broth dilution, 18 hours at 35° C.
[3] = Enterococcus faecalis (GC 2242); broth dilution, 18 hours at 35° C.
[4] = Enterococcus faecalis (GC 4552); broth dilution, 18 hours at 35° C.
[5] = Enterococcus faecalis (GC 4553); broth dilution, 18 hours at 35° C.
[6] = Enterococcus faecalis (GC 4554); broth dilution, 18 hours at 35° C.
[7] = Enterococcus faecium (GC 2243); broth dilution, 18 hours at 35° C.
[8] = Enterococcus faecium (GC 4556); broth dilution, 18 hours at 35° C.
[9] = Enterococcus faecium (GC 4557); broth dilution, 18 hours at 35° C.
[10] = Streptococcus agalactiae (GC 4564); broth dilution, 18 hours at 35° C.
[11] = Streptococcus pyogenes (ID-3187); broth dilution, 18 hours at 35° C.

CC(c1ccccc1)C1NC(=O)CNC(=O)C(CO)NC(=O)C(C(O)C2CNC(=N)N2C2OC(CO)C(O)C(O)C2O)NC(=O)C(C(O)C2CNC(=N)N2)NC(=O)C(Cc2ccc(OC3OC(CO)C(OC4OC5COC(c6ccc(C(C)(C)C)cc6)OC5C(O)C4O)C(O)C3O)cc2)NC1=O (centres unmarked) [Example 147]
1 to 2 µg/mL: MIC Enterococcus faecium (GC 2243) (Enterococcus sp.; [7]) | MIC Enterococcus faecium (GC 4557) (Enterococcus sp.; [9]) | MIC Enterococcus faecium (GC 2243) (Enterococcus sp.; strain GC 2243; broth dilution, 18 hours at 35° C.) | MIC Enterococcus faecium (GC 4557) (Enterococcus sp.; strain GC 4557; broth dilution, 18 hours at 35° C.) | MIC Staphylococcus haemolyticus (GC 4546) (Staphylococcus sp.; strain GC 4546) | MIC Coagulase Negative Staphylococcus (GC 4547) (Staphylococcus sp.; strain GC 4547)
0.5 to 1 µg/mL: MIC Enterococcus faecalis (GC 2242) (Enterococcus sp.; [3]) | MIC Enterococcus faecalis (GC 4552) (Enterococcus sp.; [4]) | MIC Enterococcus faecalis (GC 4553) (Enterococcus sp.; [5]) | MIC Enterococcus faecalis (GC 4554) (Enterococcus sp.; [6]) | MIC Enterococcus faecalis (GC 2242) (Enterococcus sp.; strain GC 2242; broth dilution, 18 hours at 35° C.) | MIC Enterococcus faecalis (GC 4552) (Enterococcus sp.; strain GC 4552; broth dilution, 18 hours at 35° C.) | MIC Enterococcus faecalis (GC 4553) (Enterococcus sp.; strain GC 4553; broth dilution, 18 hours at 35° C.) | MIC Enterococcus faecalis (GC 4554) (Enterococcus sp.; strain GC 4554; broth dilution, 18 hours at 35° C.) | MIC Staphylococcus aureus (GC 4542) (Staphylococcus sp.; strain GC 4542) | MIC Staphylococcus aureus-SMITH (GC 4543) (Staphylococcus sp.; strain GC 4543) | MIC Staphylococcus aureus (GC 4544) (Staphylococcus sp.; strain GC 4544) | MIC Staphylococcus aureus (GC 4545) (Staphylococcus sp.; strain GC 4545) | MIC Staphylococcus aureus-SMITH (GC 4543) (Staphylococcus sp.; strain SMITH GC 4543)
64 µg/mL: MIC Escherichia coli (GC 4559) (Escherichia coli; strain GC 4559, 18 hours at 35° C.)
1 µg/mL: MIC Coagulase Negative Staphylococcus (GC 4551) (Staphylococcus sp.; strain GC 4551) | MIC Coagulase Negative Staphylococcus (ID-3941) (Staphylococcus sp.; strain ID-3941)
<0.5 µg/mL: MIC Streptococcus pyogenes (ID-3187) (Streptococcus sp.; [11]) | MIC Streptococcus pyogenes (ID-3187) (Streptococcus sp.; strain ID-3187; broth dilution, 18 hours at 35° C.)
<0.12 µg/mL: MIC Streptococcus agalactiae (GC 4564) (Streptococcus sp.; [10]) | MIC Streptococcus agalactiae (GC 4564) (Streptococcus sp.; strain GC 4564; broth dilution, 18 hours at 35° C.)
0.5 µg/mL: MIC Enterococcus faecalis (GC 2691) (Enterococcus sp.; Enterococcus faecalis (GC 2691); broth dilution, 18 hours at 35° C.) | MIC Enterococcus faecalis (GC 3059) (Enterococcus sp.; Enterococcus faecalis (GC 3059); broth dilution, 18 hours at 35° C.) | MIC Enterococcus faecalis (GC 6189) (Enterococcus sp.; Enterococcus faecalis (GC 6189); broth dilution, 18 hours at 35° C.) | MIC Enterococcus faecalis (GC 2691) (Enterococcus sp.; strain GC 2691; broth dilution, 18 hours at 35° C.) | MIC Enterococcus faecalis (GC 3059) (Enterococcus sp.; strain GC 3059; broth dilution, 18 hours at 35° C.) | MIC Enterococcus faecalis (GC 6189) (Enterococcus sp.; strain GC 6189; broth dilution, 18 hours at 35° C.) | MIC Staphylococcus aureus (GC 3051) (Staphylococcus sp.; strain GC 3051) | MIC Staphylococcus aureus (GC 3053) (Staphylococcus sp.; strain GC 3053)
0.5 to 2 µg/mL: MIC Escherichia coli (GC 4560) (Escherichia coli; strain GC 4560, 18 hours at 35° C.) | MIC Enterococcus avium (GC 4558) (Enterococcus sp.; [1]) | MIC Enterococcus faecalis (ATCC 29212) (Enterococcus sp.; [2]) | MIC Enterococcus faecalis (ATCC 29212) (Enterococcus sp.; strain ATCC 29212; broth dilution, 18 hours at 35° C.) | MIC Enterococcus avium (GC 4558) (Enterococcus sp.; strain GC 4558; broth dilution, 18 hours at 35° C.)
>0.12 µg/mL: MIC Streptococcus pyogenes (GC 4563) (Streptococcus sp.; Streptococcus pyogenes (GC 4563); broth dilution, 18 hours at 35° C.) | MIC Streptococcus pyogenes (GC 4563) (Streptococcus sp.; strain GC 4563; broth dilution, 18 hours at 35° C.)
<0.5 to 1 µg/mL: MIC Coagulase Negative Staphylococcus (GC 4548) (Staphylococcus sp.; strain GC 4548) | MIC Coagulase Negative Staphylococcus (GC 4549) (Staphylococcus sp.; strain GC 4549)
2 µg/mL: MIC Enterococcus faecium (GC 4556) (Enterococcus sp.; [8]) | MIC Enterococcus faecium (GC 4556) (Enterococcus sp.; strain GC 4556; broth dilution, 18 hours at 35° C.) | MIC Coagulase Negative Staphylococcus (GC 6257) (Staphylococcus sp.; strain GC 6257)
64-64 μg/mL: MIC Escherichia coli (ATCC 25922) (Escherichia coli; strain ATCC 25922, 18 hours at 35° C.)

CC(C)CC1OCC2OC(OC3C(CO)OC(Oc4ccc(CC5NC(=O)C(C(C)c6ccccc6)NC(=O)CNC(=O)C(CO)NC(=O)C(C(O)C6CNC(=N)N6C6OC(CO)C(O)C(O)C6O)NC(=O)C(C(O)C6CNC(=N)N6)NC5=O)cc4)C(O)C3O)C(O)C(O)C2O1 (stereo not drawn) [Example 107, Cyclo[glycyl-β-methylphenylalanyl-O-[4-O-[4,6-O-(3-methylbutylidene)hexopyranosyl]-hexopyranosyl]tyrosyl-3-(2-iminoimidazolidin-4-yl)seryl-3-(3-hexopyranosyl-2-iminoimidazolidin-4-yl)serylseryl]]
64 µg/mL: MIC Escherichia coli (ATCC 25922) (Escherichia coli; 18 hours at 35° C., strain ATCC 25922)
0.25 µg/mL: MIC Streptococcus agalactiae (GC 4564) (Streptococcus sp.; [10]) | MIC Streptococcus pyogenes (ID-3187) (Streptococcus sp.; [11]) | MIC Streptococcus agalactiae (GC 4564) (Streptococcus sp.; broth dilution, 18 hours at 35° C.; strain GC 4564) | MIC Streptococcus pyogenes (ID-3187) (Streptococcus sp.; broth dilution, 18 hours at 35° C.; strain ID-3187)
8 µg/mL: MIC Enterococcus avium (GC 4558) (Enterococcus sp.; [1]) | MIC Enterococcus faecalis (GC 4553) (Enterococcus sp.; [5]) | MIC Enterococcus faecium (GC 2243) (Enterococcus sp.; [7]) | MIC Enterococcus faecium (GC 2243) (Enterococcus sp.; broth dilution, 18 hours at 35° C.; strain GC 2243) | MIC Enterococcus faecalis (GC 4553) (Enterococcus sp.; broth dilution, 18 hours at 35° C.; strain GC 4553) | MIC Enterococcus avium (GC 4558) (Enterococcus sp.; broth dilution, 18 hours at 35° C.; strain GC 4558)
<0.12 µg/mL: MIC Streptococcus pneumoniae (GC 4565) (Streptococcus sp.; Streptococcus pneumoniae (GC 4565); broth dilution, 18 hours at 35° C.) | MIC Streptococcus pneumoniae (GC 4565) (Streptococcus sp.; broth dilution, 18 hours at 35° C.; strain GC 4565)
1 µg/mL: MIC Coagulase Negative Staphylococcus (GC 4547) (Staphylococcus sp.) | MIC Coagulase Negative Staphylococcus (GC 4548) (Staphylococcus sp.) | MIC Coagulase Negative Staphylococcus (GC 4549) (Staphylococcus sp.) | MIC Coagulase Negative Staphylococcus (GC 4551) (Staphylococcus sp.) | MIC Coagulase Negative Staphylococcus (ID-3941) (Staphylococcus sp.) | MIC Staphylococcus aureus (ATCC 29213) (Staphylococcus sp.) | MIC Staphylococcus aureus (GC 4542) (Staphylococcus sp.) | MIC Staphylococcus aureus (GC 4545) (Staphylococcus sp.) | MIC Staphylococcus aureus-SMITH (GC 4543) (Staphylococcus sp.) | MIC Staphylococcus haemolyticus (GC 4546) (Staphylococcus sp.) | MIC Staphylococcus aureus (ATCC 29213) (Staphylococcus sp.; strain ATCC 29213) | MIC Staphylococcus aureus (GC 4542) (Staphylococcus sp.; strain GC 4542) | MIC Staphylococcus aureus (GC 4545) (Staphylococcus sp.; strain GC 4545) | MIC Staphylococcus haemolyticus (GC 4546) (Staphylococcus sp.; strain GC 4546) | MIC Coagulase Negative Staphylococcus (GC 4547) (Staphylococcus sp.; strain GC 4547) | MIC Coagulase Negative Staphylococcus (GC 4548) (Staphylococcus sp.; strain GC 4548) | MIC Coagulase Negative Staphylococcus (GC 4549) (Staphylococcus sp.; strain GC 4549) | MIC Coagulase Negative Staphylococcus (GC 4551) (Staphylococcus sp.; strain GC 4551) | MIC Coagulase Negative Staphylococcus (ID-3941) (Staphylococcus sp.; strain ID-3941) | MIC Staphylococcus aureus-SMITH (GC 4543) (Staphylococcus sp.; strain SMITH GC 4543)
4 µg/mL: MIC Enterococcus faecalis (ATCC 29212) (Enterococcus sp.; [2]) | MIC Enterococcus faecalis (GC 2242) (Enterococcus sp.; [3]) | MIC Enterococcus faecalis (GC 4552) (Enterococcus sp.; [4]) | MIC Enterococcus faecalis (GC 4554) (Enterococcus sp.; [6]) | MIC Enterococcus faecium (GC 4556) (Enterococcus sp.; [8]) | MIC Enterococcus faecalis (ATCC 29212) (Enterococcus sp.; broth dilution, 18 hours at 35° C.; strain ATCC 29212) | MIC Enterococcus faecalis (GC 2242) (Enterococcus sp.; broth dilution, 18 hours at 35° C.; strain GC 2242) | MIC Enterococcus faecalis (GC 4552) (Enterococcus sp.; broth dilution, 18 hours at 35° C.; strain GC 4552) | MIC Enterococcus faecalis (GC 4554) (Enterococcus sp.; broth dilution, 18 hours at 35° C.; strain GC 4554) | MIC Enterococcus faecium (GC 4556) (Enterococcus sp.; broth dilution, 18 hours at 35° C.; strain GC 4556)
2 µg/mL: MIC Enterococcus faecium (GC 4557) (Enterococcus sp.; [9]) | MIC Enterococcus faecium (GC 4557) (Enterococcus sp.; broth dilution, 18 hours at 35° C.; strain GC 4557) | MIC Staphylococcus aureus (GC 1131) (Staphylococcus sp.) | MIC Staphylococcus aureus (GC 4541) (Staphylococcus sp.) | MIC Staphylococcus aureus (GC 4544) (Staphylococcus sp.) | MIC Staphylococcus aureus (GC 1131) (Staphylococcus sp.; inoculum 5×10^5 CFU/mL, strain GC 1131) | MIC Staphylococcus aureus (GC 4541) (Staphylococcus sp.; strain GC 4541) | MIC Staphylococcus aureus (GC 4544) (Staphylococcus sp.; strain GC 4544)
